Data published in PubChem BioAssay (NCI).
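Assay format: 96-well plates, 48-hour exposure. At the GI50, growth is halved. TGI is the concentration that stops growth completely.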 Where a SMILES comes first, the peptide text is derived from it. The star is where a group is joined. Cbz = O=C(OCc1ccccc1)*; CH2Cl = ClC*

These molecules were tested on TK-10 renal (assay: DTP human tumour cell line panel, 48 h).
`O=C(Nc1ccncc1)C(=O)c1cn(S(=O)(=O)c2ccc(F)cc2)c2ccccc12` showed a GI50 of 19.2 µM and a TGI of 72.4 µM.
Work on `COc1ccc(C(=O)/C=C/c2cc(-c3cc(OC)c(OC)c(OC)c3)n[nH]2)cc1OC` yielded a GI50 of 1.33 µM and a TGI of 2.6 µM.
With `C=C(C)[C@@H]1CC[C@]2(C)[C@H](CC=C3[C@@H]4CC(C)(C)CC[C@]4(C(N)=O)CC[C@]32C)[C@@]1(C)CCC#N` the GI50 was 7.32 µM and the TGI was greater than 100 µM.
In the case of `COc1c(OC[C@H](O)CN2CCOCC2)ccc2c3n(c(=NC(=O)c4cccnc4C)nc12)CCN3`, the GI50 is reported as 0.0941 µM and the TGI is reported as greater than 50 µM.
For `COc1ccc(-c2nc3ccc(-c4nc5ccc(N6CCN(c7ccccc7)CC6)cc5[nH]4)cc3[nH]2)cc1OC`, the GI50 was 2.2 µM and the TGI was 4.42 µM.
`O=C(N[C@@H](c1ccc(Cl)c(Cl)c1)C1CNC1)c1ccc2cnccc2c1` gave a GI50 of 0.133 µM and a TGI of 3.09 µM.
`CO/N=C(\COc1ccc2c(c1)oc(=O)c1cc(OC)ccc12)c1ccc(OC)cc1` gave a GI50 greater than 100 µM and a TGI greater than 100 µM.
Molecule `O=C1OCC2=C1C(c1cccc(Br)c1)c1cc3c(cc1N2CCO)CCC3` (stereo not drawn) has a GI50 of 0.736 µM and a TGI of 11.3 µM.
Molecule `Nc1nc(/C=C\c2ccc([N+](=O)[O-])s2)nc(N2CCCC2)n1` has a GI50 of 6.27 µM and a TGI of 20.9 µM.
`Clc1ccc2[nH]cc(-c3nnnn3-c3ccccc3)c2c1` gave a GI50 of 7.29 µM and a TGI greater than 31.6 µM.
Molecule `CC(=O)OC12C=CC(=O)N1c1ccccc1C(=O)O2` (stereo not drawn) has a TGI greater than 100 µM.
For `Oc1cccnc1[Se]`, the TGI was greater than 100 µM.
`COc1cc(-c2cc(-c3cc4c([nH]c5ccccc54)c(-c4cc(OC)c(OC)c(OC)c4)n3)cc(-c3ccccc3)n2)cc(OC)c1OC` gave a GI50 of 4.5 µM and a TGI of 31.2 µM.
`CC(C)Oc1ccc2cc(-c3nn(CC4CCNCC4)c4ncnc(N)c34)ccc2c1` was tested, and the GI50 was 12.8 µM and the TGI was 25.7 µM.
With `CS(=O)(=O)CCNCc1nc(-c2ccc3ncnc(Nc4ccc(OCc5cccc(C(F)(F)F)c5)cc4)c3c2)cs1` the GI50 was 1.67 µM and the TGI was greater than 25 µM.
In the case of `CC(C)CC(NC(=O)OCc1ccccc1)C(=O)NC(Cc1ccccc1)C(=O)CCl` (stereo not drawn) (Cbz-Leu-Phe-CH2Cl; configuration not given here), the TGI is reported as 3.24 µM.
With `CCOC(=O)C(Cc1ccc(CCCC(=O)NCCC(=O)Nc2ccc3nc(C)sc3c2)cc1)C(=O)OCC` the GI50 was greater than 100 µM and the TGI was greater than 100 µM.
`NCCNc1c2c(c(NCCN)c3[nH]ccc13)C(=O)c1ccccc1C2=O` showed a GI50 of 0.145 µM and a TGI of 0.682 µM.
`CCOC(=O)Nc1ccc(-c2nc(-c3cccc(OCCN4CCOCC4)c3)c(-c3ccnc(Br)c3)[nH]2)cc1` was tested, and the GI50 was 4.26 µM and the TGI was greater than 100 µM.
Work on `COc1cc(Cn2c(-c3ccccc3)c(Cl)c3c2-c2oncc2CC3)cc(OC)c1` yielded a GI50 of 26.5 µM and a TGI greater than 100 µM.
`O=C(CC1(O)C(=O)N(Cc2ccccc2)c2ccc(F)cc21)c1ccc(C(=O)NCC2CCC3(CC2)OOC2(CCCCC2)OO3)cc1` (stereo not drawn) showed a GI50 of 0.191 µM and a TGI of 0.413 µM.
`COc1cc2c3c(n(C)c(=O)c2cc1OC)-c1cc2c(cc1/C3=C\CN)OCO2` was tested, and the GI50 was 4.04 µM and the TGI was 32.8 µM.
`CC[C@H]1[C@@H]2C=C[C@@H]3[C@H]4C/C=C\C(=O)NCCC[C@@H]5NC(=O)/C(=C(O)/C=C/[C@@H]4C[C@@H]3[C@H]2C[C@H]1C)C5=O` gave a GI50 of 1.35 µM and a TGI of 2.71 µM.

Each molecule was assayed on CCRF-CEM leukemia (assay: DTP human tumour cell line panel, 48 h).
For `O=C(O)Cc1cc(Cl)ccc1O`, the TGI was greater than 100 µM.
With `O=C(c1ccccc1)c1cc2ccccc2o1` the GI50 was greater than 100 µM and the TGI was greater than 100 µM.
Work on `O=C(Nc1ccncc1)C(=O)c1cn(S(=O)(=O)c2ccc(F)cc2)c2ccccc12` yielded a GI50 of 6.21 µM and a TGI greater than 100 µM.
`COc1ccc(C(=O)/C=C/c2cc(-c3cc(OC)c(OC)c(OC)c3)n[nH]2)cc1OC` gave a GI50 of 0.626 µM and a TGI of 3.93 µM.
In the case of `C=C(C)[C@@H]1CC[C@]2(C)[C@H](CC=C3[C@@H]4CC(C)(C)CC[C@]4(C(N)=O)CC[C@]32C)[C@@]1(C)CCC#N`, the GI50 is reported as 3.02 µM and the TGI is reported as greater than 100 µM.
In the case of `COc1c(OC[C@H](O)CN2CCOCC2)ccc2c3n(c(=NC(=O)c4cccnc4C)nc12)CCN3`, the GI50 is reported as 1.67 µM and the TGI is reported as greater than 50 µM.
For `COc1ccc(-c2nc3ccc(-c4nc5ccc(N6CCN(c7ccccc7)CC6)cc5[nH]4)cc3[nH]2)cc1OC`, the TGI was 2.54 µM.
In the case of `O=C(N[C@@H](c1ccc(Cl)c(Cl)c1)C1CNC1)c1ccc2cnccc2c1`, the GI50 is reported as 0.189 µM and the TGI is reported as 14.6 µM.
`CO/N=C(\COc1ccc2c(c1)oc(=O)c1cc(OC)ccc12)c1ccc(OC)cc1` showed a GI50 greater than 100 µM and a TGI greater than 100 µM.
Work on `O=C1OCC2=C1C(c1cccc(Br)c1)c1cc3c(cc1N2CCO)CCC3` (stereo not drawn) yielded a GI50 of 0.148 µM and a TGI of 10 µM.
With `Nc1nc(/C=C\c2ccc([N+](=O)[O-])s2)nc(N2CCCC2)n1` the GI50 was 1.57 µM and the TGI was 5.23 µM.
`Clc1ccc2[nH]cc(-c3nnnn3-c3ccccc3)c2c1` was tested, and the GI50 was 19.3 µM and the TGI was greater than 100 µM.
Molecule `CC(=O)OC12C=CC(=O)N1c1ccccc1C(=O)O2` (stereo not drawn) has a TGI greater than 100 µM.
`Oc1cccnc1[Se]` gave a TGI greater than 100 µM.
Work on `COc1cc(-c2cc(-c3cc4c([nH]c5ccccc54)c(-c4cc(OC)c(OC)c(OC)c4)n3)cc(-c3ccccc3)n2)cc(OC)c1OC` yielded a GI50 of 3.6 µM and a TGI greater than 100 µM.
In the case of `CC(C)Oc1ccc2cc(-c3nn(CC4CCNCC4)c4ncnc(N)c34)ccc2c1`, the GI50 is reported as 3.98 µM and the TGI is reported as 16.9 µM.
Work on `CS(=O)(=O)CCNCc1nc(-c2ccc3ncnc(Nc4ccc(OCc5cccc(C(F)(F)F)c5)cc4)c3c2)cs1` yielded a GI50 greater than 25 µM and a TGI greater than 25 µM.
`CC(C)CC(NC(=O)OCc1ccccc1)C(=O)NC(Cc1ccccc1)C(=O)CCl` (stereo not drawn) (Cbz-Leu-Phe-CH2Cl; configuration not given here) was tested, and the TGI was 0.776 µM.
For `CCOC(=O)C(Cc1ccc(CCCC(=O)NCCC(=O)Nc2ccc3nc(C)sc3c2)cc1)C(=O)OCC`, the GI50 was 28.6 µM and the TGI was greater than 89.3 µM.
With `NCCNc1c2c(c(NCCN)c3[nH]ccc13)C(=O)c1ccccc1C2=O` the GI50 was less than 0.01 µM and the TGI was 0.163 µM.
With `CCOC(=O)Nc1ccc(-c2nc(-c3cccc(OCCN4CCOCC4)c3)c(-c3ccnc(Br)c3)[nH]2)cc1` the GI50 was 2.94 µM and the TGI was greater than 100 µM.
`COc1cc(Cn2c(-c3ccccc3)c(Cl)c3c2-c2oncc2CC3)cc(OC)c1` was tested, and the GI50 was 3.54 µM and the TGI was greater than 100 µM.
In the case of `O=C(CC1(O)C(=O)N(Cc2ccccc2)c2ccc(F)cc21)c1ccc(C(=O)NCC2CCC3(CC2)OOC2(CCCCC2)OO3)cc1` (stereo not drawn), the GI50 is reported as 0.274 µM and the TGI is reported as 0.924 µM.
Molecule `COc1cc2c3c(n(C)c(=O)c2cc1OC)-c1cc2c(cc1/C3=C\CN)OCO2` has a GI50 of 0.124 µM and a TGI of 6.97 µM.
In the case of `CC[C@H]1[C@@H]2C=C[C@@H]3[C@H]4C/C=C\C(=O)NCCC[C@@H]5NC(=O)/C(=C(O)/C=C/[C@@H]4C[C@@H]3[C@H]2C[C@H]1C)C5=O`, the GI50 is reported as 1.59 µM and the TGI is reported as 4.29 µM.

These molecules were tested on RPMI-8226 leukemia (assay: DTP human tumour cell line panel, 48 h).
With `O=C(O)Cc1cc(Cl)ccc1O` the TGI was greater than 100 µM.
`O=C(c1ccccc1)c1cc2ccccc2o1` gave a GI50 of 91.8 µM and a TGI greater than 100 µM.
`O=C(Nc1ccncc1)C(=O)c1cn(S(=O)(=O)c2ccc(F)cc2)c2ccccc12` showed a GI50 of 2.54 µM and a TGI greater than 100 µM.
With `COc1ccc(C(=O)/C=C/c2cc(-c3cc(OC)c(OC)c(OC)c3)n[nH]2)cc1OC` the GI50 was 0.241 µM and the TGI was 1.11 µM.
In the case of `C=C(C)[C@@H]1CC[C@]2(C)[C@H](CC=C3[C@@H]4CC(C)(C)CC[C@]4(C(N)=O)CC[C@]32C)[C@@]1(C)CCC#N`, the GI50 is reported as 1.94 µM and the TGI is reported as 5.54 µM.
`COc1c(OC[C@H](O)CN2CCOCC2)ccc2c3n(c(=NC(=O)c4cccnc4C)nc12)CCN3` gave a GI50 greater than 50 µM and a TGI greater than 50 µM.
Work on `COc1ccc(-c2nc3ccc(-c4nc5ccc(N6CCN(c7ccccc7)CC6)cc5[nH]4)cc3[nH]2)cc1OC` yielded a GI50 of 0.19 µM and a TGI of 2.3 µM.
With `O=C(N[C@@H](c1ccc(Cl)c(Cl)c1)C1CNC1)c1ccc2cnccc2c1` the GI50 was 1.56 µM and the TGI was 8.87 µM.
For `CO/N=C(\COc1ccc2c(c1)oc(=O)c1cc(OC)ccc12)c1ccc(OC)cc1`, the GI50 was greater than 100 µM and the TGI was greater than 100 µM.
`O=C1OCC2=C1C(c1cccc(Br)c1)c1cc3c(cc1N2CCO)CCC3` (stereo not drawn) was tested, and the GI50 was 0.183 µM and the TGI was 10 µM.
`Nc1nc(/C=C\c2ccc([N+](=O)[O-])s2)nc(N2CCCC2)n1` showed a GI50 of 1.26 µM and a TGI of 4.39 µM.
For `Clc1ccc2[nH]cc(-c3nnnn3-c3ccccc3)c2c1`, the GI50 was 14.5 µM and the TGI was 43.3 µM.
Molecule `CC(=O)OC12C=CC(=O)N1c1ccccc1C(=O)O2` (stereo not drawn) has a TGI greater than 100 µM.
Work on `Oc1cccnc1[Se]` yielded a TGI greater than 100 µM.
